Assay results: ChEMBL document CHEMBL3885881, “DrugMatrix”

Organism: Rattus norvegicus
Test: DrugMatrix - Regimen: Daily Repeat
Format: toxicity, organism-based, Sprague-Dawley
Parameters: regimen Daily Repeat, gender Male, age 6-8 weeks
Conditions: in vivo, po, route oral GAVAGE, vehicle .5 % CMC; for ABSOLUTE BASOPHIL / ABSOLUTE EOSINOPHIL / ABSOLUTE LYMPHOCYTE / ABSOLUTE MONOCYTE / ABSOLUTE SEGMENTED NEUTROPHIL / BASOPHIL / EOSINOPHIL / ERYTHROCYTE COUNT / HEMATOCRIT / HEMOGLOBIN / LEUKOCYTE COUNT / LYMPHOCYTE / MEAN CORPUSCULAR HEMOGLOBIN / MEAN CORPUSCULAR HEMOGLOBIN CONCENTRATION / MEAN CORPUSCULAR VOLUME / MONOCYTE / NEUTROPHIL / NUCLEATED RED BLOOD CELLS / PLATELET COUNT: tissue Blood; for ALANINE AMINOTRANSFERASE / ALBUMIN / ALKALINE PHOSPHATASE / ASPARTATE AMINOTRANSFERASE / BLOOD UREA NITROGEN / CARBON DIOXIDE / CHLORIDE / CHOLESTEROL / CREATINE PHOSPHOKINASE / CREATININE / GLUCOSE / LACTATE DEHYDROGENASE / LIPASE / PHOSPHORUS / POTASSIUM / SODIUM / TOTAL BILIRUBIN / TOTAL PROTEIN / URIC ACID: tissue Plasma
[1] = 0 mg/kg, 72 h, dose level Control, time 3 day
[2] = 0 mg/kg, 120 h, dose level Control, time 5 day
[3] = 1 mg/kg, 72 h, dose level Low, time 3 day
[4] = 1 mg/kg, 120 h, dose level Low, time 5 day

## OC(CCN1CCCCC1)(c1ccccc1)C1CCCCC1 (configuration not stated) [TRIHEXYPHENIDYL]
[1]
  ABSOLUTE BASOPHIL: 0 CELLS/uL
  ABSOLUTE EOSINOPHIL: 0 CELLS/uL
  ABSOLUTE LYMPHOCYTE: 10913.67 CELLS/uL
  ABSOLUTE MONOCYTE: 85.33 CELLS/uL
  ABSOLUTE SEGMENTED NEUTROPHIL: 1401 CELLS/uL
  BASOPHIL: 0%
  EOSINOPHIL: 0%
  ERYTHROCYTE COUNT: 5.57 x10E6/uL
  HEMATOCRIT: 35.58%
  HEMOGLOBIN: 13.8 G/DL
  LEUKOCYTE COUNT: 12.4 x10E3/uL
  LYMPHOCYTE: 88%
  MEAN CORPUSCULAR HEMOGLOBIN: 24.78 pg
  MEAN CORPUSCULAR HEMOGLOBIN CONCENTRATION: 38.82 G/DL
  MEAN CORPUSCULAR VOLUME: 63.88 fL
  MONOCYTE: 0.67%
  NEUTROPHIL: 11.33%
  NUCLEATED RED BLOOD CELLS: 0 /100WBC
  PLATELET COUNT: 1162.33 x10E3/uL
  ALANINE AMINOTRANSFERASE: 53 u/L
  ALBUMIN: 4.17 G/DL
  ALKALINE PHOSPHATASE: 374.5 u/L
  ASPARTATE AMINOTRANSFERASE: 89.5 u/L
  BLOOD UREA NITROGEN: 16.33 mg/dL
  CARBON DIOXIDE: 29.17 mmol/L
  CHLORIDE: 97.67 MEQ/L
  CHOLESTEROL: 77 mg/dL
  CREATINE PHOSPHOKINASE: 464.83 u/L
  CREATININE: 0.14 mg/dL
  GLUCOSE: 164 mg/dL
  LACTATE DEHYDROGENASE: 155.5 u/L
  LIPASE: 9.17 u/L
  PHOSPHORUS: 12.4 mg/dL
  POTASSIUM: 6.91 MEQ/L
  SODIUM: 141.47 MEQ/L
  TOTAL BILIRUBIN: 0.2 mg/dL
  TOTAL PROTEIN: 5.95 G/DL
  URIC ACID: 1.72 mg/dL
[2]
  ABSOLUTE BASOPHIL: 0 CELLS/uL
  ABSOLUTE EOSINOPHIL: 20.5 CELLS/uL
  ABSOLUTE LYMPHOCYTE: 13871.67 CELLS/uL
  ABSOLUTE MONOCYTE: 60.5 CELLS/uL
  ABSOLUTE SEGMENTED NEUTROPHIL: 980.67 CELLS/uL
  BASOPHIL: 0%
  EOSINOPHIL: 0.17%
  ERYTHROCYTE COUNT: 5.65 x10E6/uL
  HEMATOCRIT: 35.63%
  HEMOGLOBIN: 14.08 G/DL
  LEUKOCYTE COUNT: 14.93 x10E3/uL
  LYMPHOCYTE: 92.83%
  MEAN CORPUSCULAR HEMOGLOBIN: 24.97 pg
  MEAN CORPUSCULAR HEMOGLOBIN CONCENTRATION: 39.55 G/DL
  MEAN CORPUSCULAR VOLUME: 63.13 fL
  MONOCYTE: 0.33%
  NEUTROPHIL: 6.67%
  NUCLEATED RED BLOOD CELLS: 0 /100WBC
  PLATELET COUNT: 1248.17 x10E3/uL
  ALANINE AMINOTRANSFERASE: 45.17 u/L
  ALBUMIN: 4.27 G/DL
  ALKALINE PHOSPHATASE: 405.67 u/L
  ASPARTATE AMINOTRANSFERASE: 74.17 u/L
  BLOOD UREA NITROGEN: 15.5 mg/dL
  CARBON DIOXIDE: 30.17 mmol/L
  CHLORIDE: 100.67 MEQ/L
  CHOLESTEROL: 57 mg/dL
  CREATINE PHOSPHOKINASE: 239.5 u/L
  CREATININE: 0.17 mg/dL
  GLUCOSE: 165.67 mg/dL
  LACTATE DEHYDROGENASE: 90.5 u/L
  LIPASE: 8.83 u/L
  PHOSPHORUS: 12.32 mg/dL
  POTASSIUM: 7.03 MEQ/L
  SODIUM: 142.65 MEQ/L
  TOTAL BILIRUBIN: 0.18 mg/dL
  TOTAL PROTEIN: 6.03 G/DL
  URIC ACID: 1.98 mg/dL
[3]
  ABSOLUTE BASOPHIL: 0 CELLS/uL
  ABSOLUTE EOSINOPHIL: 0 CELLS/uL
  ABSOLUTE LYMPHOCYTE: 14884.67 CELLS/uL
  ABSOLUTE MONOCYTE: 0 CELLS/uL
  ABSOLUTE SEGMENTED NEUTROPHIL: 848.67 CELLS/uL
  BASOPHIL: 0%
  EOSINOPHIL: 0%
  ERYTHROCYTE COUNT: 5.35 x10E6/uL
  HEMATOCRIT: 35.77%
  HEMOGLOBIN: 14.27 G/DL
  LEUKOCYTE COUNT: 15.73 x10E3/uL
  LYMPHOCYTE: 94.33%
  MEAN CORPUSCULAR HEMOGLOBIN: 26.7 pg
  MEAN CORPUSCULAR HEMOGLOBIN CONCENTRATION: 39.87 G/DL
  MEAN CORPUSCULAR VOLUME: 66.97 fL
  MONOCYTE: 0%
  NEUTROPHIL: 5.67%
  NUCLEATED RED BLOOD CELLS: 0 /100WBC
  PLATELET COUNT: 1285.67 x10E3/uL
  ALANINE AMINOTRANSFERASE: 51.33 u/L
  ALBUMIN: 4.33 G/DL
  ALKALINE PHOSPHATASE: 449.67 u/L
  ASPARTATE AMINOTRANSFERASE: 84 u/L
  BLOOD UREA NITROGEN: 18.67 mg/dL
  CARBON DIOXIDE: 27.33 mmol/L
  CHLORIDE: 99.67 MEQ/L
  CHOLESTEROL: 76 mg/dL
  CREATINE PHOSPHOKINASE: 344.67 u/L
  CREATININE: 0.14 mg/dL
  GLUCOSE: 149.33 mg/dL
  LACTATE DEHYDROGENASE: 254.67 u/L
  LIPASE: 9.33 u/L
  PHOSPHORUS: 13.83 mg/dL
  POTASSIUM: 6.89 MEQ/L
  SODIUM: 145.2 MEQ/L
  TOTAL BILIRUBIN: 0.17 mg/dL
  TOTAL PROTEIN: 6.23 G/DL
  URIC ACID: 1.77 mg/dL
[4]
  ABSOLUTE BASOPHIL: 0 CELLS/uL
  ABSOLUTE EOSINOPHIL: 0 CELLS/uL
  ABSOLUTE LYMPHOCYTE: 16182.67 CELLS/uL
  ABSOLUTE MONOCYTE: 124 CELLS/uL
  ABSOLUTE SEGMENTED NEUTROPHIL: 1360 CELLS/uL
  BASOPHIL: 0%
  EOSINOPHIL: 0%
  ERYTHROCYTE COUNT: 5.66 x10E6/uL
  HEMATOCRIT: 35.77%
  HEMOGLOBIN: 14.3 G/DL
  LEUKOCYTE COUNT: 17.67 x10E3/uL
  LYMPHOCYTE: 91.67%
  MEAN CORPUSCULAR HEMOGLOBIN: 25.23 pg
  MEAN CORPUSCULAR HEMOGLOBIN CONCENTRATION: 40 G/DL
  MEAN CORPUSCULAR VOLUME: 63.13 fL
  MONOCYTE: 0.67%
  NEUTROPHIL: 7.67%
  NUCLEATED RED BLOOD CELLS: 0.33 /100WBC
  PLATELET COUNT: 1182.33 x10E3/uL
  ALANINE AMINOTRANSFERASE: 45.67 u/L
  ALBUMIN: 4.2 G/DL
  ALKALINE PHOSPHATASE: 394 u/L
  ASPARTATE AMINOTRANSFERASE: 78.67 u/L
  BLOOD UREA NITROGEN: 15.67 mg/dL
  CARBON DIOXIDE: 26.67 mmol/L
  CHLORIDE: 101 MEQ/L
  CHOLESTEROL: 73.33 mg/dL
  CREATINE PHOSPHOKINASE: 379.33 u/L
  CREATININE: 0.13 mg/dL
  GLUCOSE: 139.67 mg/dL
  LACTATE DEHYDROGENASE: 370.67 u/L
  LIPASE: 9 u/L
  PHOSPHORUS: 12.93 mg/dL
  POTASSIUM: 6.84 MEQ/L
  SODIUM: 143 MEQ/L
  TOTAL BILIRUBIN: 0.17 mg/dL
  TOTAL PROTEIN: 5.9 G/DL
  URIC ACID: 1.3 mg/dL
